Reference: a melting point compilation (Tetko et al.; mined from patent text by program, amines drawn as free bases though some values may be those of a salt)

melting point [°C] | SMILES
315 to 317 | Cc1c(-c2ccc(-c3ccccc3F)cc2)nc2ccc(F)cc2c1C(=O)O
219 to 221 | Cc1nc2ccccc2n1-c1ccc(C(=O)N(C)C2CCNCC2)cc1
115 to 116 | COC(NC(C)=O)(C(=O)OC(C)(C)C)C(Br)Br (centres undefined)
286 to 288 | Cn1cc(-c2cc3cccnc3[nH]2)c2cc(C(=O)NCCC(N)=O)ccc21
175 to 176 | Cc1nc(N2CCC(Cc3ccc(C(F)(F)F)cc3)C2=O)sc1C(=O)NCc1ccc(F)cc1 (centres undefined)
97 to 99 | COc1ccc([C@@H]2OC(=O)[C@H](C)N2C(=O)OCc2ccccc2)cc1
171 to 172 | C[C@H](O)CNc1nc(Oc2ccc(F)cc2F)cc2[nH]nc(-c3ccccc3Cl)c12
117 to 118 | Cc1c(Cl)csc1-c1nc(-c2c(F)cccc2Cl)nn1C
132 to 133 | CN1CCN(c2nc3ccc(Br)c4c3n2CCC4)CC1
89 to 92 | O=C(c1ccccc1)c1ccc(C(=O)N2Cc3ccccc3CCc3ccccc32)cc1
242 to 244 | O=C(O)c1cn(C2COC2)c2c(F)c(F)c(F)c(O)c2c1=O
95 | c1ccc(-c2ccc(CCCN3CCN(c4ccccc4)CC3)o2)cc1
255 to 256 | COc1ccc(-c2c(Br)c(CN3C(=O)CCC3=O)nc3sc4c(c23)CCN(Cc2ccccc2)C4)cc1
219 to 221 | O=C1COC(C#Cc2cccnc2)(C(F)(F)F)c2cc(Cl)ccc2N1 (centres undefined)
176 to 178 | Cc1nc(N2CCN(Cc3ccc(C#N)cc3)C2=O)sc1C(=O)NCc1ccccc1

More lines, now with the values behind:

SMILES | melting point [°C]
CCC(CC)NC(=O)n1nc(Oc2c(Cl)cc(C(F)(F)F)cc2Cl)cc1C | 65 to 67
COc1c(Cl)ccc(-c2cc(N)c(Cl)c(C(=O)NOCc3cncs3)n2)c1F | 179 to 181
CC(C)C(C)(C#N)NC(=O)c1ccccc1C(=O)O (centres undefined) | 154 to 155
O=C1c2ccc(-c3ccccc3)cc2CC1Br (centres undefined) | 99 to 100
CCOC(=NC(=O)c1cc(C(F)(F)F)cc(C(F)(F)F)c1)N1Cc2ccccc2-c2ccccc2C1 | 129 to 130
O=C(NOCc1ccccc1)c1cc(F)c(Cl)nc1Cl | 176 to 177
O=C1C(c2ccc(-c3ccccc3)cc2)n2cncc2CN1Cc1ccc(F)cc1 (centres undefined) | 189 to 190
Cn1nc(-c2ccccc2)nc1-c1cccnc1 | 97 to 98
NCc1nc2ccccc2[nH]1 | 81 to 83
COC(=O)c1cc(Cl)cc2ccoc12 | 144 to 145
Cn1ccnc1C(O)(c1ccccc1)c1ccc(Cl)cc1 (centres undefined) | 185 to 186
Cn1c(CON2C(=O)c3ccccc3C2=O)ncc(OCc2ccccc2)c1=O | 170
CC(=O)N1c2ccccc2-n2cc(Cc3cccnc3)c(=O)c3cccc1c32 | 143 to 144
N#CCc1ccccc1O | 118
Cc1ccc(-c2ccc(Cl)c(C(=O)O)n2)cc1C(=O)NCC1CCCCCC1 | 177 to 178
O=C1CCC(N2Cc3c(CNC(=O)c4ccco4)cccc3C2=O)C(=O)N1 (centres undefined) | 219 to 221
O=C1NC(=O)C(Nc2ccc(CCNCC(O)c3cccnc3)cc2)S1 (centres undefined) | 46 to 48
Cc1c(C(=O)Nc2ccc(N3CCC(c4ccccc4)CC3)c(C#N)c2)cnn1-c1ccc(Cl)cc1 | 186 to 188
CC(C)(C)C(NC(=O)c1ccc(Cl)cc1)NC(=C[N+](=O)[O-])Nc1cccnc1 (centres undefined) | 195 to 196
O=C(Nc1ccc(-n2nc(C(F)(F)F)cc2C(F)(F)F)cc1)c1ccc(O)cc1 | > 245
CC(C)(C)Nc1nc(C#N)c(C#N)nc1N | > 250
CN(Cc1cccs1)C(=O)C1(c2ccc(F)cc2)CCCC1 | 72 to 75
CC(C)(C)C(=O)c1c[nH]c2ncc(-c3cccc(OCc4ccccc4)c3)nc12 | 184 to 185
CNC(=O)c1ccccc1Nc1nc(Nc2ccc3c(c2)CCN(C[C@@H](O)C(F)(F)F)CC3)ncc1Cl | 188 to 191
